Source: PubChem BioAssay (NCI)
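Exposure lasted 48 hours, with cells grown in 96-well plates and compounds tested at five concentrations. At the TGI there is no net growth.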

Columns and labels:
Experiment in all cases: NCI anticancer screen, dose series, 48 h
786-0 renal = system: 786-0 renal
A498 renal = system: A498 renal
BT-549 breast = system: BT-549 breast
CAKI-1 renal = system: CAKI-1 renal
CCRF-CEM leukemia = system: CCRF-CEM leukemia
COLO 205 colon = system: COLO 205 colon
DU-145 prostate = system: DU-145 prostate
EKVX NSCLC = system: EKVX NSCLC
HCT-116 colon = system: HCT-116 colon
HCT-15 colon = system: HCT-15 colon
HL-60(TB) leukemia = system: HL-60(TB) leukemia
HOP-62 NSCLC = system: HOP-62 NSCLC
HS 578T breast = system: HS 578T breast
HT29 colon = system: HT29 colon
IGROV1 ovarian = system: IGROV1 ovarian
K-562 leukemia = system: K-562 leukemia
KM12 colon = system: KM12 colon
LOX IMVI melanoma = system: LOX IMVI melanoma
MDA-MB-231 breast = system: MDA-MB-231 breast
MDA-MB-435 = system: MDA-MB-435
MDA-N = system: MDA-N
MOLT-4 leukemia = system: MOLT-4 leukemia
NCI-H226 lung = system: NCI-H226 lung
NCI-H23 lung = system: NCI-H23 lung
NCI/ADR-RES ovarian = system: NCI/ADR-RES ovarian
OVCAR-3 ovarian = system: OVCAR-3 ovarian
OVCAR-4 ovarian = system: OVCAR-4 ovarian
OVCAR-8 ovarian = system: OVCAR-8 ovarian
PC-3 prostate = system: PC-3 prostate
RPMI-8226 leukemia = system: RPMI-8226 leukemia
SF-268 CNS = system: SF-268 CNS
SK-MEL-2 melanoma = system: SK-MEL-2 melanoma
SK-MEL-28 melanoma = system: SK-MEL-28 melanoma
SK-MEL-5 melanoma = system: SK-MEL-5 melanoma
SN12C renal = system: SN12C renal
SNB-19 CNS = system: SNB-19 CNS
SNB-75 CNS = system: SNB-75 CNS
SW-620 colon = system: SW-620 colon
T-47D breast = system: T-47D breast
U251 CNS = system: U251 CNS
UACC-62 melanoma = system: UACC-62 melanoma
A549 NSCLC = system: A549 NSCLC
ACHN renal = system: ACHN renal
HCC-2998 colon = system: HCC-2998 colon
HOP-92 NSCLC = system: HOP-92 NSCLC
M14 melanoma = system: M14 melanoma
MALME-3M melanoma = system: MALME-3M melanoma
MCF7 breast = system: MCF7 breast
NCI-H460 lung = system: NCI-H460 lung
NCI-H522 lung = system: NCI-H522 lung
OVCAR-5 ovarian = system: OVCAR-5 ovarian
RXF 393 renal = system: RXF 393 renal
SF-295 CNS = system: SF-295 CNS
SF-539 CNS = system: SF-539 CNS
SK-OV-3 ovarian = system: SK-OV-3 ovarian
SR leukemia = system: SR leukemia
TK-10 renal = system: TK-10 renal
UACC-257 melanoma = system: UACC-257 melanoma
UO-31 renal = system: UO-31 renal

Measured: TGI

CN(C)CCNc1ccc(NCC[N+](C)(C)Cc2ccc([N+](=O)[O-])cc2)c2c1C(=O)c1c(O)ccc(O)c1C2=O
47.5 µM: SK-MEL-5 melanoma
8.8 µM: MOLT-4 leukemia
40.9 µM: BT-549 breast
69 µM: MDA-N
not listed: A549 NSCLC | ACHN renal | HCC-2998 colon | HOP-92 NSCLC | M14 melanoma | MALME-3M melanoma | MCF7 breast | NCI-H460 lung | NCI-H522 lung | OVCAR-5 ovarian | RXF 393 renal | SF-295 CNS | SF-539 CNS | SK-OV-3 ovarian | SR leukemia | TK-10 renal | UACC-257 melanoma | UO-31 renal
> 100 µM: all other assays above

Cc1cn2cc(-c3cccs3)nc2s1
> 90.1 µM: HT29 colon
not listed: NCI/ADR-RES ovarian
> 100 µM: all other assays above

CC(C)(C)[Si](C)(C)OCC1OC(n2cnc3c(N)ncnc32)C2OC(=S)OC12 (centres undefined)
48.3 µM: MDA-MB-435
77.8 µM: UACC-62 melanoma
86.6 µM: OVCAR-5 ovarian
81.2 µM: NCI/ADR-RES ovarian
94 µM: MDA-N
78.3 µM: UO-31 renal
98.3 µM: MALME-3M melanoma
59 µM: CCRF-CEM leukemia
36.1 µM: SK-MEL-5 melanoma
74.7 µM: BT-549 breast | SK-MEL-2 melanoma
91.9 µM: OVCAR-3 ovarian
97 µM: SK-OV-3 ovarian
93.4 µM: MCF7 breast
68.2 µM: U251 CNS
73.3 µM: NCI-H23 lung
69.3 µM: MOLT-4 leukemia
not listed: 786-0 renal | EKVX NSCLC | SF-268 CNS | T-47D breast | A549 NSCLC | ACHN renal | HCC-2998 colon | NCI-H522 lung | SF-539 CNS
> 100 µM: all other assays above
